21 compounds from patent publication US20190135818A1 (SHANGHAI INSTITUTE OF MATERIA MEDICA, CHINESE ACADEMY OF …, priority 2016, published 2019) can be followed below.

For one test, the target named is T1, FGFR1 (Homo sapiens, UniProt P11362).
T1 construct: The reaction was initiated by addition of FGFR kinase domain recombinant protein diluted with 49 μL of reaction buffer; purchased Millipore 14-482
The test can be described thus: FGFR kinase inhibitory activity experiment (ELISA, Poly(Glu,Tyr)4:1 substrate). In kind it is biochemical. Particulars: kinase recombinant protein FGFR1, ATP 5 μM. As to the method:
Precision electronic balance (Sartotius, Cat. No. BP210D), adjustable wavelength microplate reader (Molecular Device, Cat. No. SpectraMax 190).
After the liquid was removed from the wells, the plate was washed for three times with 200 μL/well of T-PBS (PBS containing 0.1% Tween-20) for 5 minutes each time. The enzyme plate was dried at 37° C. in a dryer for 1-2 hours.
50 μL ATP solution diluted with reaction buffer (50 mM HEPES pH 7.4, 50 mM MgCl2, 0.5 mM MnCl2, 0.2 mM Na3VO4, 1 mM DTT) was added into each well at a 5 μM final concentration. The compounds were diluted to appropriate concentration in DMSO, 1 μL/well or containing the corresponding concentrations of DMSO (negative control wells). The reaction was initiated by addition of FGFR kinase domain recombinant protein diluted with 49 μL of reaction buffer. Two control wells without enzyme were set in each experiment. The plate was placed on a shaker (100 rpm) at 37° C. for 1 hour. The plate was washed with T-PBS for three times. 100 μL/well of primary antibody PY99 dilution was added, and incubated at 37° C. for 0.5 hour on a shaker (100 rpm). The plate was washed with T-PBS for three times. 100 μL/well of horseradish peroxidase-labeled secondary anti-goat anti-mouse IgG dilution was added and incubated at 37° C. for 0.5 hour on a shaker (100 rpm). The plate was washed with T-PBS for three times. 100 μL/well of 2 mg/mL OPD coloration solution (diluted with 0.1 M citric acid-sodium citrate buffer containing 0.03% H2O2 (pH=5.4)) was added, and incubated in darkness for 1-10 minutes at 25° C. The reaction was quenched with 50 μL/well 2M H2SO4, and read at 490 nm using a tunable microplate microplate reader SPECTRA MAX 190.
The inhibition ratio of the sample was determined by the following formula: […]
(§1) The IC50 values were obtained by four-parameter regression analysis using the software supplied with the microplate reader.
Background: An ELISA detects its analyte on a solid surface through an enzyme-linked reagent.

In test [1] the test system is Human acute myeloid leukemia cell line KG1. The test is described as follows: FGFR-dependent tumor cell proliferation inhibition activity test (CCK-8, 72 h). In kind it is cell-based. Particulars: Homo sapiens, KG-1, KG1 cells.
Excerpt: Human acute myeloid leukemia cell line KG1 (FGFR1 fusion protein expressed in the cytoplasm, FGFR1-dependent tumor cell line) (ATCC, Cat. No. CCL-246), cell culture medium RPMI-1640 (Corning Cellgro, No. 10-040-CVR), fetal bovine serum (Life
Technologies, Cat. No. 10099-141) was purchased from the company; CCK-8 cell counting kit (DOJINDO, Cat. No. FK808). Adjustable wavelength microplate reader (Molecular Device, Cat. No. SpectraMax 190).
The inhibitory effect of the compound on KG1 proliferation was detected by CCK-8 Cell Counting Kit (Dojindo): Logarithmic growth phase cells were seeded in 96-well culture plate in appropriate density, 90 ul for each well. After cultured overnight, different concentrations of drugs were added and incubated for 72 h, while solvent control well was set (negative control). After the cells were treated by the compound for 72 h, 10 μL of CCK-8 reagent was added to each well. After incubated for 2-4 hours in a 37 □ incubator, the plate was read with SpectraMax 190 microplate reader at wavelength 450 nm.
The inhibition rate of compounds against cell proliferation is calculated by the following formula:
Inhibition rate (%)=(OD negative control well-OD administration well)/OD negative control well×100%.
as §1

T1 sequence (P11362 478-767 limits assumed): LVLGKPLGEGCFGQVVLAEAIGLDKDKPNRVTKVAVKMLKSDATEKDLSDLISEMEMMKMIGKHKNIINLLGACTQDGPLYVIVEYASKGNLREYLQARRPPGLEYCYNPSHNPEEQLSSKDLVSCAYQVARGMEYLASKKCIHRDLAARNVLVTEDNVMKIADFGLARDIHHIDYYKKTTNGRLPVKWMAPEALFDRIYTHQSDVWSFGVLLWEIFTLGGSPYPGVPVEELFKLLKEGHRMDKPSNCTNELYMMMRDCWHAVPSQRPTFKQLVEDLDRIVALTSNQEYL

Usually IC50 stands for the concentration that gives 50% inhibition. `CCC(=O)N1CCC(n2nc3c(=O)[nH]nc(N)c3c2-c2oc3ccc(C)cc3c2C)CC1` [Compound A10, 4-amino-3-(3,5-dimethyl-1-benzofuran-2-yl)-2-(1-propionylpiperidin-4-yl)-2,6-dihydro-7H-pyrazolo[3,4-d]pyridazin-7-one]: the IC50 on FGFR1 was below 0.1 µM; in test [1] it was 0.1 to 1 µM.
The matching figures for `Cc1ccc2oc(-c3c4c(N)n[nH]c(=O)c4nn3-c3ccc(N(C)CCN(C)C)cc3)c(C)c2c1` [Compound A11, 4-amino-2-(4-{[2-(dimethylamino)ethyl] (methyl)amino}phenyl)-3-(3,5-dimethyl-1-benzofuran-2-yl)-2,6-dihydro-7H-pyrazolo[3,4-d]pyridazin-7-one]: below 0.1 µM and 0.1 to 1 µM.
`Cc1ccc2oc(-c3c4c(N)n[nH]c(=O)c4nn3-c3ccc(Cl)cc3)c(C)c2c1` [Compound A13, 4-amino-2-(4-chlorophenyl)-3-(3,5-dimethyl-1-benzofuran-2-yl)-2,6-dihydro-7H-pyrazolo[3,4-d]pyridazin-7-one]: the results for the IC50 (on FGFR1; in test [1]) were below 0.1 µM and 0.1 to 1 µM, respectively.
On to `CCN1CCC(n2nc3c(=O)[nH]nc(N)c3c2-c2oc3ccc(Cl)cc3c2C)CC1` [Compound A23, 4-amino-3-(5-chloro-3-methyl-1-benzo-furan-2-yl)-2-(1-ethylpiperidin-4-yl)-2,6-dihydro-7H-pyrazolo[3,4-d]pyridazin-7-one], for which the IC50 at FGFR1 is below 0.1 µM; in test [1] it was at most 0.1 µM.
Taken in the same sequence, the figures for `CCN1CCC(n2nc3c(=O)[nH]nc(N)c3c2-c2oc3ccc(C)cc3c2C)CC1` [Compound A24, 4-amino-3-(3,5-dimethyl-1-benzofuran-2-yl)-2-(1-ethylpiperidin-4-yl)-2,6-dihy-dro-7H-pyrazolo[3,4-d]pyridazin-7-one] were below 0.1 µM and at most 0.1 µM.
The matching figures for `Cc1ccc2oc(-c3c4c(N)n[nH]c(=O)c4nn3-c3ccc(NC(=O)/C=C/CN4CCC4)cc3)c(C)c2c1` [Compound A27, (2E)-N-{4-[4-amino-3-(3,5-dimethyl-1-benzofuran-2-yl)-7-carbonyl-6,7-dihydro-2H-pyrazolo[3,4-d]pyridazin-2-yl]phenyl}-4-(azetidin-1-yl)but-2-enamide]: below 0.1 µM and at most 0.1 µM.
Taken in the same sequence, the figures for `C=CC(=O)N1CCC(n2nc3c(=O)[nH]nc(N)c3c2-c2oc3ccc(C)cc3c2C)CC1` [Compound A29, 2-(1-acryloylpiperidin-4-yl)-4-amino-3-(3,5-dimethyl-1-benzofuran-2-yl)-2,6-dihydro-7H-pyrazolo[3,4-d]pyridazin-7-one] were below 0.1 µM and at most 0.1 µM.
Take `Cc1ccc2oc(-c3c4c(N)n[nH]c(=O)c4nn3C3CCN(C(=O)/C=C/CN(C)C)CC3)c(C)c2c1` [Compound A30, 4-amino-2-{1-[(2E)-4-(dimethylamino)but-2-enoyl]piperidin-4-yl}-3-(3,5-dimethyl-1-benzofuran-2-yl)-2,6-dihydro-7H-pyrazolo[3,4-d]pyridazin-7-one]: the values for the IC50 (at FGFR1; in test [1]) were below 0.1 µM and at most 0.1 µM, respectively.
With `C=CC(=O)NC1CCC(n2nc3c(=O)[nH]nc(N)c3c2-c2oc3ccc(C)cc3c2C)CC1` (stereo not drawn) [Compound A33, N-{4-[4-amino-3-(3,5-dimethyl-1-benzo-furan-2-yl)-7-carbonyl-6,7-dihydro-2H-pyrazolo[3,4-d]pyridazin-2-yl]cyclohexyl}prop-2-enamide], the IC50 is below 0.1 µM at FGFR1 and at most 0.1 µM in test [1].
As for `Cc1ccc2oc(-c3c4c(N)n[nH]c(=O)c4nn3C3CCC(NC(=O)CN(C)C)CC3)c(C)c2c1` (stereo not drawn) [Compound A35, N-{4-[4-amino-3-(3,5-dimethyl-1-benzo-furan-2-yl)-7-carbonyl-6,7-dihydro-2H-pyrazolo[3,4-d]pyridazin-2-yl]cyclohexyl}-N,N-dimethylglycinamide], the IC50 at FGFR1 was below 0.1 µM; in test [1], 0.1 to 1 µM.
On to `C=CC(=O)N1CCCC(n2nc3c(=O)[nH]nc(N)c3c2-c2oc3ccc(C)cc3c2C)C1` (stereo not drawn) [Compound A40, 2-(1-acryloylpiperidin-3-yl)-4-amino-3-(3,5-dimethyl-1-benzofuran-2-yl)-2,6-dihy-dro-7H-pyrazolo[3,4-d]pyridazin-7-one], for which the IC50 on FGFR1 is below 0.1 µM; in test [1], at most 0.1 µM.
For the compound `CCC(=O)N1CCC(n2nc3c(=O)[nH]nc(N)c3c2-c2oc3ccc(Cl)cc3c2C)CC1` [Compound A41], the IC50 on FGFR1 was below 0.1 µM; in test [1] it was 0.1 to 1 µM.
On to `C=CC(=O)N1CCC(n2nc3c(=O)[nH]nc(N)c3c2-c2oc3ccc(C)cc3c2C)C1` (stereo not drawn) [Compound A51, 2-(1-acryloylpyrrolidin-3-yl)-4-amino-3-(3,5-dimethyl-1-benzofuran-2-yl)-2,6-dihydro-7H-pyrazolo[3,4-d]pyridazin-7-one], for which the figures for the IC50 (at FGFR1; in test [1]) were below 0.1 µM and at most 0.1 µM, respectively.
Consider `C=C(F)C(=O)N1CCC(n2nc3c(=O)[nH]nc(N)c3c2-c2oc3ccc(C)cc3c2C)C1` (stereo not drawn) [Compound A52, 4-amino-3-(3,5-dimethyl-1-benzofuran-2-yl)-2-[1-(2-fluoroacryloyl)pyrrolidin-3-yl]-2,6-dihydro-7H-pyrazolo[3,4-d] pyridazin-7-one], for which the IC50 at FGFR1 is below 0.1 µM; in test [1] it was at most 0.1 µM.
On to `C=C(C#N)C(=O)N1CCC(n2nc3c(=O)[nH]nc(N)c3c2-c2oc3ccc(C)cc3c2C)CC1` [Compound A55, 2-({4-[4-amino-3-(3,5-dimethyl-1-benzo-furan-2-yl)-7-carbonyl-6,7-dihydro-2H-pyrazolo[3,4-d]pyridazin-2-yl]piperidin-1-yl}carbonyl)prop-2-enenitrile], for which the IC50 at FGFR1 was below 0.1 µM; in test [1], at most 0.1 µM.
On to `C=CC(=O)N1CCCC(n2nc3c(=O)[nH]nc(N)c3c2-c2oc3ccc(OC)cc3c2C)C1` (stereo not drawn) [Compound A79, 2-(1-acryloylpiperidin-3-yl)-4-amino-3-(5-methoxy-3-methylbenzofuran-2-yl)-2,6-dihydro-7H-pyrazolo[3,4-d] pyridazin-7-one], for which the IC50 was below 0.1 µM on FGFR1 and at most 0.1 µM in test [1].
As to `C=CC(=O)N1CCC(n2nc3c(=O)[nH]nc(N)c3c2-c2oc3ccc(F)cc3c2C)CC1` [Compound A80, 2-(1-acryloylpiperidin-4-yl)-4-amino-3-(5-fluoro-3-methylbenzofuran-2-yl)-2,6-dihydro-7H-pyrazolo[3,4-d]pyridazin-7-one], the concentration for half-maximal inhibition (IC50) (on FGFR1; in test [1]) was 0.1 to 1 µM in each case.
With `C=CC(=O)N1CCC(n2nc3c(=O)[nH]nc(N)c3c2-c2oc3cc(C)ccc3c2C)CC1` [Compound A82, 2-(1-acryloylpiperidin-4-yl)-4-amino-3-(3,6-dimethylbenzofuran-2-yl)-2,6-dihy-dro-7H-pyrazole[3,4-d]pyridazin-7-one], the IC50 on FGFR1 was below 0.1 µM; in test [1], at most 0.1 µM.
In the case of `C=CC(=O)N1CCC(n2nc3c(=O)[nH]nc(N)c3c2-c2oc3cc(F)ccc3c2C)CC1` [Compound A83, 2-(1-acryloylpiperidin-4-yl)-4-amino-3-(6-fluoro-3-methylbenzofuran-2-yl)-2,6-dihydro-7H-pyrazole[3,4-d]pyridazine-7-one], the IC50 on FGFR1 was below 0.1 µM; in test [1], at most 0.1 µM.
For the compound `C=CC(=O)N1CCC(n2nc3c(=O)[nH]nc(N)c3c2-c2oc3cc(Cl)ccc3c2C)CC1` [Compound A84, 2-(1-acryloylpiperidin-4-yl)-4-amino-3-(6-chloro-3-methylbenzofuran-2-yl)-2,6-dihydro-7H-pyrazolo[3,4-d]pyridazine-7-one], the IC50 is below 0.1 µM on FGFR1 and at most 0.1 µM in test [1].
Consider `C=CC(=O)N1CCC(n2nc3c(=O)[nH]nc(N)c3c2-c2oc3ccc(C)cc3c2CC)CC1` [Compound A85, 2-(1-acryloylpiperidin-4-yl)-4-amino-3-(3-ethyl-5-methylbenzofuran-2-yl)-2,6-dihydro-7H-pyrazolo[3,4-d]pyridazin-7-one], for which the IC50 at FGFR1 was below 0.1 µM; in test [1] it was at most 0.1 µM.
